In data set [1] the test system is peripheral blood mononuclear cells (PBMCs). The data set is described as follows: MTT cell viability assay, PBMCs. Particulars: for cytotoxicity towards PBMCs (in words): MTT, normal cells; for IC50: PBMC, 48 h, read-out: IC50 (µM) PBMCs. A general note: Tetrazolium assays rely on reduction of a dye to a coloured formazan, in cell work by metabolically active cells.
Description: (§2) In experiments, K562 cells and PBMCs were cultured in 24-well and 96-well plates (Asahi Glass Co., Chiba, Japan) at 4 × 10^4 and 1 × 10^6 cells/mL concentrations, respectively, for 48 h. A549 cells were plated (24-well plate) at 1 × 10^4 cells/mL and incubated for 72 h (the optimal cell number was determined in our previous studies) [34, 35, 36]. The stock solutions of the compounds and erlotinib in concentrations ranging from 1 µM to 10 mM were prepared in DMSO (Wako Pure Chemical Industries, Osaka, Japan) and further diluted with fresh culture medium. The final DMSO concentration was adjusted as 1%, which had no effect on the cell viability [37].
(§3) Then, supernatants were discarded, and the formazan crystals were solubilized with a 100 μL DMSO addition. The absorbance of the solution was measured using an Infinite M1000 microplate reader (Tecan, Grödig, Austria) at a wavelength of 570 and 630 nm.

Data set [2] concerns A549 human lung adenocarcinoma cells. Description: MTT cell viability assay, A549 cells. The note with it: A549, 72 h, read-out: IC50 (µM) A549 Cells.
Description: as §2, §3
The test system of data set [3] is K562 chronic myelogenous leukemia (CML) cells. The data set is described as follows: MTT cell viability assay, K562 cells. Particulars: Homo sapiens, K562, 48 h, read-out: IC50 (µM) K562 Cells.
Description: as §2, §3
Data set [4] addresses T1, EGFR TK (Homo sapiens, UniProt P00533).
T1 construct: purchased Promega Corporation
Description: EGFR TK inhibition, kinase profiling / ADP-Glo Kinase Assay. It counts as biochemical. Particulars: 4 h incubation at room temperature.
Description: Manufacturer′s instructions (Promega Corporation, Madison, WI, USA) were applied for the kinase profiling assay protocol (TK-1 and TK-2) with small changes [40, 41, 42]. […] The kinase working stocks (2 µL), 2 µL of the ATP/substrate working stocks, and 1 µL of the tested compound solution (3–100 µM) and erlotinib solution (0.01–100 µM) or 5% DMSO solution in the 384-well plate were used for the kinase reactions. Following the 4 h of incubation at room temperature, the activity of kinases was screened by means of the ADP-Glo Kinase Assay (Promega Corporation, Madison, WI, USA) based on the manufacturer′s protocol. The Infinite M1000 microplate reader (Tecan, Grödig, Austria) was used to measure the kinase inhibitory effects of the compounds in a dose-response manner. Besides, the IC50 values of the tested compounds were determined using ImageJ software.

Data set [5] relates to A549 cells. The data set is described as follows: Annexin V/ethidium homodimer III staining assay (apoptosis). It counts as cell-based, human. Particulars: IC50 concentrations, 15 h. As for the experimental part:
Then, an apoptotic/necrotic cell detection kit (PromoKine, Heidelberg, Germany) was used according to manufacturer′s instructions with some modifications. Briefly, the cells were washed twice with 1× binding buffer, a staining solution containing 50 μL of 1× binding buffer, 5 μL of FITC-Annexin V solution, and 5 μL of ethidium homodimer III solution, and treated for 30 min at room temperature in a protected-light environment. After washing of cells in 1× binding buffer, cells were analyzed under a Biorevo BZ-9000 all-in-one fluorescence microscope (Keyence, Osaka, Japan). The number of apoptotic cells, late apoptotic or necrotic cells, and necrotic cells was quantified as previously described.

Data set [6] has as its target T2, HER2 (Homo sapiens, UniProt P04626).
T2 construct: purchased Promega Corporation
Description: Kinase selectivity profiling TK-1, HER2. It counts as biochemical. Particulars: 30 µM concentration. Here is the method:
(§1) Manufacturer′s instructions (Promega Corporation, Madison, WI, USA) were applied for the kinase profiling assay protocol (TK-1 and TK-2) with small changes. According to this protocol, the kinase stocks in the kinase strips and their substrate stocks in the substrate strips were diluted with 95 µL of 2.5× kinase buffer and 15 µL of 100 µM ATP solutions, respectively. The kinase working stocks (2 µL), 2 µL of the ATP/substrate working stocks, and 1 µL of the tested compound solution (3–100 µM) and erlotinib solution (0.01–100 µM) or 5% DMSO solution in the 384-well plate were used for the kinase reactions. Following the 4 h of incubation at room temperature, the activity of kinases was screened by means of the ADP-Glo Kinase Assay (Promega Corporation, Madison, WI, USA) based on the manufacturer′s protocol. The Infinite M1000 microplate reader (Tecan, Grödig, Austria) was used to measure the kinase inhibitory effects of the compounds in a dose-response manner. Besides, the IC50 values of the tested compounds were determined using ImageJ software.

The target of data set [7] is T3, LCK (Homo sapiens, UniProt P06239).
T3 construct: purchased Promega Corporation
The data set is described as follows: Kinase selectivity profiling TK-2, LCK. It counts as biochemical. Particulars: 30 µM concentration. Here is the method: as §1

Where only a bound is given, the exact number is not on record here.

T1 sequence (P00533 25-1210): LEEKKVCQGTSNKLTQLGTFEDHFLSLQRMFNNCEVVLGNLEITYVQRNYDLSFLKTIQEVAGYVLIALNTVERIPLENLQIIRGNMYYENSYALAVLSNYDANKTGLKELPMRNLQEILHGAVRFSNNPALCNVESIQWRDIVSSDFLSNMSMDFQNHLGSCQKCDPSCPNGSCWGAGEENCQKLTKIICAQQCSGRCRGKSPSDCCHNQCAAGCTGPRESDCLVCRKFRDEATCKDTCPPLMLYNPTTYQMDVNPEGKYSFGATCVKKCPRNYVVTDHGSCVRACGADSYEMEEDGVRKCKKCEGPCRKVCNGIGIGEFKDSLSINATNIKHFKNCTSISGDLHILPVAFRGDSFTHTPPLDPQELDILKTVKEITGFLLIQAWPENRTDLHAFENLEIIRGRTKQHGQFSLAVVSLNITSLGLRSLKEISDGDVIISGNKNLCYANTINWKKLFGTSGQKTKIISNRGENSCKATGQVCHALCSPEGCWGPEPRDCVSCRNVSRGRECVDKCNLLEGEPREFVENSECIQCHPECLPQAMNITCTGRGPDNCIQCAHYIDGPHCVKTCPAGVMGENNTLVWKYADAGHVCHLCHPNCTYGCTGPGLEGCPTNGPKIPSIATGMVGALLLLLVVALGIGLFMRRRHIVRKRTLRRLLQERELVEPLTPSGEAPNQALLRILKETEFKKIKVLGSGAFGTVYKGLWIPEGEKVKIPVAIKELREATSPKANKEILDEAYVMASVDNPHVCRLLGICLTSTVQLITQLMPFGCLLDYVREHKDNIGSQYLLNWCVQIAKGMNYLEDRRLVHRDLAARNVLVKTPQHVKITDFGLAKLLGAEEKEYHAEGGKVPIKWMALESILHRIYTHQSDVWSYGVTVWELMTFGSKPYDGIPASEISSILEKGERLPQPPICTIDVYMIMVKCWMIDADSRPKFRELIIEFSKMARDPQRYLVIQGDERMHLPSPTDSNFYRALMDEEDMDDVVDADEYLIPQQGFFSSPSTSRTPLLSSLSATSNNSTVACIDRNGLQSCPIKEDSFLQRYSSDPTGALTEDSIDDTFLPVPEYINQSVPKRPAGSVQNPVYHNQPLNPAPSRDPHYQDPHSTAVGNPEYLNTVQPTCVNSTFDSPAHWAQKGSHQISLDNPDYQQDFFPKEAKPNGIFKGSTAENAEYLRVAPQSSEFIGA
T3 sequence (P06239 whole entry): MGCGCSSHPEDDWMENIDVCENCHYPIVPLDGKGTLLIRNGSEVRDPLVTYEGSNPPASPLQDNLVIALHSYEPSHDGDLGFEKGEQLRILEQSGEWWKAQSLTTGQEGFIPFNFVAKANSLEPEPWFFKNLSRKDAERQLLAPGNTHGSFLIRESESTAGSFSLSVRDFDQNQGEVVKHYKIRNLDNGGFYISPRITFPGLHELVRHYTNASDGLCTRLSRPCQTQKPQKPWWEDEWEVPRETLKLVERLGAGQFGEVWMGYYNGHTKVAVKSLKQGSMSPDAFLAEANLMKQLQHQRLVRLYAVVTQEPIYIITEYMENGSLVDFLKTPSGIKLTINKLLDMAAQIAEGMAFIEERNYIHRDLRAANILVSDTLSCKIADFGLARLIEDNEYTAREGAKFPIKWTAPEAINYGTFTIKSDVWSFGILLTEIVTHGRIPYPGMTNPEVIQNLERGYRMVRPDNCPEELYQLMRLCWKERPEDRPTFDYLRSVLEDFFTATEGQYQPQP
T2 sequence (P04626 23-1255): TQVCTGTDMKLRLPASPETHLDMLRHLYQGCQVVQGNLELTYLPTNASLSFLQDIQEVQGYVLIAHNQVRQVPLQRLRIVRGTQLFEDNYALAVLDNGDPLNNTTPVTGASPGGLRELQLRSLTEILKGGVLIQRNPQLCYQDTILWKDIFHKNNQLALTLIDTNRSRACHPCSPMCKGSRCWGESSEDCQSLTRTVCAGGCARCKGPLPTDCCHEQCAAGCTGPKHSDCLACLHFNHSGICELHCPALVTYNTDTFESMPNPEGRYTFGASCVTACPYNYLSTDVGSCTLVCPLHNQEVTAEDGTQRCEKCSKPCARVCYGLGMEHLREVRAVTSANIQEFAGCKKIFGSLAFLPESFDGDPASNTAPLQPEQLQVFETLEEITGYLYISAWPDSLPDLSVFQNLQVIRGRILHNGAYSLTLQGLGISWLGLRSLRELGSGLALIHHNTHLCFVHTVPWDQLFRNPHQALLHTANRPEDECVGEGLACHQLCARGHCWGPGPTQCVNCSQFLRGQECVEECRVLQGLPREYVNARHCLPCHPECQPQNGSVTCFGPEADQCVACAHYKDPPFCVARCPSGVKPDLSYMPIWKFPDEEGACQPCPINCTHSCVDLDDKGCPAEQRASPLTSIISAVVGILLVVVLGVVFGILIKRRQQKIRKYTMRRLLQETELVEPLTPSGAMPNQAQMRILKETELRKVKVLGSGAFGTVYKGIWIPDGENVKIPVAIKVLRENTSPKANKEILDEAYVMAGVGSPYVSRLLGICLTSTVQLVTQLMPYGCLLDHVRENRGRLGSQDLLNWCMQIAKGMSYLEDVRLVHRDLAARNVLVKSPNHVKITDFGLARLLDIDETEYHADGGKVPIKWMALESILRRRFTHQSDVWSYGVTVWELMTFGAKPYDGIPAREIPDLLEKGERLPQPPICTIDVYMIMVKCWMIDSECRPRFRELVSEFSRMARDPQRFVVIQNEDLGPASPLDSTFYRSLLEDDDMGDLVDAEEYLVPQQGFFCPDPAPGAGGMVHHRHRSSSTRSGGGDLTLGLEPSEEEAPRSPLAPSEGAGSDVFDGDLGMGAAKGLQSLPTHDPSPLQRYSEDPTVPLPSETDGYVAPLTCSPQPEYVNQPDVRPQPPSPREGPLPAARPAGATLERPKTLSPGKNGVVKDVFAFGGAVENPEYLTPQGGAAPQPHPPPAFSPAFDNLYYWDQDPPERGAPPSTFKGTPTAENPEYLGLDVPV

As usually defined, the IC50 is the point on the concentration scale where inhibition reaches its midpoint. For the molecule `COc1cc2c(cc1Cl)Cc1c-2nn(-c2ccccc2)c1-c1ccc(N2CCCCC2)cc1` [Compound 1, 6-Chloro-7-methoxy-2-phenyl-3-[4-(piperidin-1-yl)phenyl]-2,4-dihydroindeno[1,2-c]pyrazole], the “cytotoxicity towards PBMCs (in words)” value in data set [1] is on record as “no significant cytotoxicity”. Also, the IC50 was found to be 95.7 ± 11.7 µM in data set [1], 7.99 ± 1.84 µM in data set [2], 3.49 ± 0.92 µM in data set [3] and 55.3 ± 8.68 µM in data set [4].
A word on the melting point: it is the temperature, or range, at which the solid turns liquid. `COc1cc2c(cc1Cl)Cc1c-2nn(-c2ccc(F)cc2)c1-c1ccc(N2CCCCC2)cc1` [Compound 2, 6-Chloro-7-methoxy-2-(4-fluorophenyl)-3-[4-(piperidin-1-yl)phenyl]-2,4-dihydroindeno[1,2-c]pyrazole]: the melting point lay within 188 to 190 °C. Further, the IC50 in data set [2] is more than 10 µM.
On to `COc1cc2c(cc1Cl)Cc1c-2nn(-c2ccc(Cl)cc2)c1-c1ccc(N2CCCCC2)cc1` [Compound 3, 6-Chloro-7-methoxy-2-(4-chlorophenyl)-3-[4-(piperidin-1-yl)phenyl]-2,4-dihydroindeno[1,2-c]pyrazole], for which the IC50 in data set [2] was more than 10 µM.
Consider `COc1cc2c(cc1Cl)Cc1c-2nn(-c2ccc(Br)cc2)c1-c1ccc(N2CCCCC2)cc1` [Compound 4, 6-Chloro-7-methoxy-2-(4-bromophenyl)-3-[4-(piperidin-1-yl)phenyl]-2,4-dihydroindeno[1,2-c]pyrazole], for which the melting point was in the range of 125 to 126 °C. In addition, in data set [5], the “percentage of A549 cells undergoing apoptosis” value was 56.30%. Also, in data set [1], the “cytotoxicity towards PBMCs (in words)” value is given as “no significant cytotoxicity” and the IC50 is 19.6 ± 4.25 µM. Moreover, in data set [6], the “HER2 inhibition compared to erlotinib” value is on record as “more significantly than erlotinib”. Moreover, the IC50 in data set [2] worked out at 6.13 ± 1.42 µM. The IC50 in data set [3] was found to be 2.65 ± 0.75 µM. The IC50 in data set [4] turned out to be 17.6 µM. Further, in data set [7], the “LCK inhibition compared to erlotinib” value is given as “more significantly than erlotinib”.
Turning to `COc1cc2c(cc1Cl)Cc1c-2nn(-c2ccc(C#N)cc2)c1-c1ccc(N2CCCCC2)cc1` [Compound 5, 6-Chloro-7-methoxy-2-(4-cyanophenyl)-3-[4-(piperidin-1-yl)phenyl]-2,4-dihydroindeno[1,2-c]pyrazole], the IC50 in data set [2] is more than 10 µM.
The molecule `COc1cc2c(cc1Cl)Cc1c-2nn(-c2ccc(S(C)(=O)=O)cc2)c1-c1ccc(N2CCCCC2)cc1` [Compound 6, 6-Chloro-7-methoxy-2-(4-(methylsulfonyl)phenyl)-3-[4-(piperidin-1-yl)phenyl]-2,4-dihydroindeno[1,2-c]pyrazole] yielded a melting point of 116 to 117 °C. Besides, the IC50 in data set [2] is more than 10 µM.
`COc1cc2c(cc1Cl)Cc1c-2nn(-c2ccc(C)cc2)c1-c1ccc(N2CCCCC2)cc1` [Compound 7, 6-Chloro-7-methoxy-2-(4-methylphenyl)-3-[4-(piperidin-1-yl)phenyl]-2,4-dihydroindeno[1,2-c]pyrazole] registered a melting point of 123 to 124 °C. In data set [1], the “cytotoxicity towards PBMCs (in words)” value was “no significant cytotoxicity” and the IC50 was more than 100 µM. Moreover, the IC50 in data set [2] was 8.67 ± 2.18 µM. Besides, the IC50 in data set [3] was found to be 2.76 ± 0.83 µM. In addition, the IC50 in data set [4] was found to be 46.7 ± 7.04 µM.
As for `C#Cc1cccc(Nc2ncnc3cc(OCCOC)c(OCCOC)cc23)c1` [Erlotinib, reference compound], in data set [5], the “percentage of A549 cells undergoing apoptosis” value was determined as 53.60%. The IC50 in data set [1] is 44.3 ± 7.84 µM; in data set [2] it was 19.7 ± 3.15 µM; in data set [3], 29.6 ± 5.26 µM.
